Data from PubChem BioAssay (NCI).
Several values for one entry are separate records, joined by “and”; a condition that tells them apart may be missing. Identical values can stand only once.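 96-well plates; 48 h exposure; 5 concentrations. Endpoints by linear interpolation between flanking doses. Not reached: highest tested concentration assigned. The concentration for 50% growth inhibition is given as GI50. TGI: concentration producing complete growth inhibition.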 Where a SMILES comes first, the peptide text is derived from it. Bridges are numbered along the chain shown (N, C = ends). [ ]: non-standard residue; d: D form. ξ: configuration not given here. ξThr(3R) = C[C@@H](O)C(N)C(=O)O; S5 = C=CCCC[C@](C)(N)C(=O)O

Experiments:
Assay in all cases: NCI tumour cell line growth inhibition, 48 h
DU-145 prostate = tested on: DU-145 prostate
MDA-MB-435 = tested on: MDA-MB-435
KM12 colon = tested on: KM12 colon
M14 melanoma = tested on: M14 melanoma
CCRF-CEM leukemia = tested on: CCRF-CEM leukemia
HCT-116 colon = tested on: HCT-116 colon
HCC-2998 colon = tested on: HCC-2998 colon
BT-549 breast = tested on: BT-549 breast
SN12C renal = tested on: SN12C renal
A498 renal = tested on: A498 renal

Compound | GI50 (DU-145 prostate) | TGI (DU-145 prostate) | GI50 (MDA-MB-435) | TGI (MDA-MB-435) | GI50 (KM12 colon) | TGI (KM12 colon) | GI50 (M14 melanoma) | TGI (M14 melanoma) | GI50 (CCRF-CEM leukemia) | TGI (CCRF-CEM leukemia) [µM] | GI50 (HCT-116 colon) | TGI (HCT-116 colon) | GI50 (HCC-2998 colon) | TGI (HCC-2998 colon) | GI50 (BT-549 breast) | TGI (BT-549 breast) | GI50 (SN12C renal) | TGI (SN12C renal) [µM] | GI50 (A498 renal) | TGI (A498 renal)
CCN(CC)CCC(CNc1ccnc2cc(Cl)ccc12)c1ccccc1 (centres undefined) | 32.9 µM | > 100 µM | 2.01 µM | 5.02 µM | 7.29 µM | 75.1 µM | 1.71 µM | 3.19 µM | 4.02 µM | 36.5 | 2.8 µM | 15.4 µM | 2.09 µM | 6.6 µM | 10.8 µM | 24.6 µM | 16.3 µM | > 100 | 2.41 µM | 13 µM
NC(=O)CC1(O)C=C(Br)C(=O)C(Br)=C1 | 6.05 µM | 19 µM | 2.04 µM | 7.31 µM | 13.8 µM | 27.2 µM | 2.64 µM | > 32.8 µM | 0.194 µM | 0.434 | 0.392 µM | 10.7 µM | 18.2 µM | 33 µM | 1.91 µM | 6.97 µM | 9.05 µM | 23.4 | 15.8 µM | 29.3 µM
Nc1cc(C(F)(F)F)c(-c2cc(N3CCOCC3)nc(N3CCOCC3)n2)cn1 | 1.22 µM and 1.79 µM | 9.96 µM and > 33.1 µM | 0.275 µM and 0.29 µM | 1.03 µM and 1.32 µM | 1.39 µM and 1.22 µM | > 10 µM and 8.55 µM | 0.669 µM and 0.644 µM | 4.04 µM and 3.88 µM | 1.56 µM and 1.49 µM | > 100 | 1.21 µM and 1.12 µM | > 10 µM and 9.38 µM | 0.85 µM and 1.12 µM | 4.14 µM and 5.45 µM | 0.558 µM and 0.727 µM | > 7.16 µM and 6.67 µM | 1.27 µM and 1.61 µM | > 100 | 0.189 µM and 0.205 µM | 0.713 µM and 1.09 µM
O=C(/C=C/C(Cl)(Cl)Cl)Nc1ccc(Cl)cc1 | – | 30.6 µM | – | 12.4 µM | – | 6.07 µM | – | 11.7 µM | – | 3.97 | – | 17.6 µM | – | 14.5 µM | – | 31.1 µM | – | 25.8 | – | 28.8 µM
CC(c1ccccc1)[C@@H](C(=O)Nc1ccc(I)cc1F)N1C(=O)N[C@H](c2ccc(OC[C@H](O)CO)cc2)C1=O (some centres undefined) | 15.3 µM | > 25 µM | 0.0817 µM | > 25 µM | 2.4 µM | > 25 µM | 0.0707 µM | 5.74 µM | 14.3 µM | > 25 | 1.12 µM | > 25 µM | 0.445 µM | > 25 µM | 9.17 µM | > 23.7 µM | 6.14 µM | > 25 | 0.541 µM | 2.3 µM
CC(=O)N[C@H](C(=O)N[C@@H](CCCNC(=N)N)C(=O)N[C@@H](CCCCN)C(=O)N[C@@H](CCCNC(=N)N)C(=O)NC(C(=O)N[C@@H](CC(C)C)C(=O)N[C@@H](CCCNC(=N)N)C(=O)N[C@@]1(C)CCC/C=C\CCC[C@@](C)(C(=O)N[C@@H](CCCNC(=N)N)C(=O)N[C@@H](CCC(=O)O)C(=O)N[C@@H](CC(C)C)C(=O)N[C@H](C(=O)N[C@@H](CCC(=O)O)C(N)=O)C(C)C)NC(=O)[C@H](CCC(N)=O)NC(=O)[C@H](CC(C)C)NC(=O)[C@H](CC(C)C)NC1=O)[C@@H](C)O)C(C)C (stereo partly drawn) (Ac-VRKR[ξThr(3R)]LR[S5]LLQ[S5]RELVE-NH2; staple (Z) 8-12) | 2.68 µM | 9.2 µM | 1.94 µM | 7.56 µM | 1.99 µM | 8.03 µM | 4.27 µM | 11.5 µM | 11.2 µM | 34.2 | 8.87 µM | 17.1 µM | 7.67 µM | 18.2 µM | 3.45 µM | 11.1 µM | 3.33 µM | 10.7 | 8.69 µM | 18.4 µM
COc1cc(/C=C/C(=O)N2CCC=CC2=O)cc(OC)c1OC | 4.05 µM | 18.6 µM | 2.21 µM | 6.05 µM | 3.18 µM | 12.8 µM | 1.92 µM | 4.41 µM | 2.12 µM | 6.29 | 1.8 µM | 4.13 µM | 1.77 µM | 3.56 µM | 2.45 µM | 7.84 µM | 2.64 µM | 7.84 | 14.9 µM | 29.4 µM
COc1ccccc1/C=C/C1=C(C)CCC(c2ccccc2OC)C1C (centres undefined) | 0.22 µM | 0.868 µM | 0.0595 µM | 0.154 µM | 0.0879 µM | – | 0.16 µM | 0.655 µM | 0.0684 µM | > 100 | 0.108 µM | 3.14 µM | 0.249 µM | 1.56 µM | 0.27 µM | 1.73 µM | 0.323 µM | > 100 | 0.0923 µM | 0.534 µM
COC1=C(OC)C(=O)C(Sc2ccc3ccccc3c2)=CC1=O | – | 33.7 µM | – | 29.8 µM | – | 21.2 µM | – | 21.8 µM | – | 4.31 | – | 25.9 µM | – | 26.1 µM | – | 22.5 µM | – | 26.5 | – | 29.6 µM
Nc1nnnc2nc[nH]c12 | 0.8 µM | > 100 µM | 0.542 µM | 2.57 µM | 4.11 µM | > 100 µM | 0.568 µM | 4.02 µM | 0.72 µM | > 100 | 0.639 µM | > 100 µM | 1.26 µM | > 34.7 µM | 1.03 µM | > 25.2 µM | 2.25 µM | > 100 | 1.87 µM | 15.3 µM
Cc1c(-c2ccc(O)cc2)oc(=O)c2ccc(O)cc12 | 75.8 µM | > 100 µM | 15.4 µM | 85.2 µM | 60.9 µM | > 100 µM | 40.3 µM | > 100 µM | 32.6 µM | > 100 | 38 µM | > 100 µM | 36.9 µM | > 100 µM | 35.6 µM | > 100 µM | 66.6 µM | > 100 | 42.8 µM | 98.1 µM
O=c1ccc(=O)n(-c2ccccc2)[nH]1 | – | > 100 µM | – | > 100 µM | – | > 100 µM | – | > 100 µM | – | > 100 | – | > 100 µM | – | > 100 µM | – | > 100 µM | – | > 100 | – | > 100 µM
COc1cccc(C2=C(c3cn(C)c4cc(F)ccc34)C(=O)NC2=O)c1 | > 25 µM | > 25 µM | 11.7 µM | > 25 µM | > 17.4 µM | > 25 µM | 24.6 µM | > 25 µM | 9.63 µM | > 25 | 8.59 µM | > 25 µM | > 25 µM | > 25 µM | > 24 µM | > 25 µM | > 21.5 µM | > 25 | 5.96 µM | > 25 µM
